Measured values taken from PubChem BioAssay AID330 (DTP/NCI, 2004).
Values joined by “and” are separate entries in the source; they are usually repeats but may differ in a detail not shown here. Identical values can stand only once. Toxic doses and inconclusive results are not listed. Rule for the calls: active = survival T/C of 150% or more; inactive = T/C below 125% in these data. Square brackets hold non-standard residues; d marks the D form. Peptide text beside a SMILES is read from it. * marks the point of attachment. ξ: configuration not given here. Cbz = O=C(OCc1ccccc1)*; ξP = O=C(O)C1CCCN1

Test system: P388 leukemia ip, CD2F1 mice, survival T/C
Assay: NCI In Vivo Anticancer Drug Screen. Data for tumor model P388 Leukemia (intraperitoneal) in CD2F1 (CDF1) mice
Details: endpoint: median survival time, higher = longer survival
Outline: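 Mice carrying the transplanted tumor received test compound or vehicle. Survival was recorded in each group, and the value is the treated-group measurement divided by that of the vehicle-treated control group.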

[1] = dose: 12.5 mg/kg/injection, schedule: Q01DX009 (ip), vehicle: saline with Tween-80
[2] = dose: 25.0 mg/kg/injection, schedule: Q01DX009 (ip), vehicle: saline with Tween-80
[3] = dose: 60.0 mg/kg/injection, schedule: Q01DX005 (ip), vehicle: saline with Tween-80
[4] = dose: 120.0 mg/kg/injection, schedule: Q01DX005 (ip), vehicle: saline with Tween-80
[5] = dose: 240.0 mg/kg/injection, schedule: Q01DX005 (ip), vehicle: saline with Tween-80
[6] = dose: 50.0 mg/kg/injection, schedule: Q01DX005 (ip), vehicle: saline with Tween-80
[7] = dose: 100.0 mg/kg/injection, schedule: Q01DX005 (ip), vehicle: saline with Tween-80
[8] = dose: 200.0 mg/kg/injection, schedule: Q01DX005 (ip), vehicle: saline with Tween-80
[9] = dose: 50.0 mg/kg/injection, schedule: Q01DX009 (ip), vehicle: saline with Tween-80
[10] = dose: 100.0 mg/kg/injection, schedule: Q01DX009 (ip), vehicle: saline with Tween-80
[11] = dose: 25.0 mg/kg/injection, schedule: Q01DX009 (ip), vehicle: saline
[12] = dose: 6.25 mg/kg/injection, schedule: Q01DX009 (ip), vehicle: saline
[13] = dose: 12.5 mg/kg/injection, schedule: Q01DX009 (ip), vehicle: saline

Measured: T/C

CCO/C(C)=N\c1nc(C)[nH]c1C(N)=O
inactive: dose: 6.25 mg/kg/injection, schedule: Q01DX009 (ip), vehicle: saline with Tween-80 120 % of control | [1] 106 % of control | [2] 87 % of control | dose: 200.0 mg/kg/injection, schedule: Q01DX009 (ip), vehicle: saline 86 % of control

COC(=O)C(=O)C(C#N)c1ccc([N+](=O)[O-])cc1 (stereo not drawn)
inactive: [3] 101 % of control | [4] 93 % of control | [5] 95 % of control

N#CCCC[n+]1cc2ccccc2c2ccccc21
inactive: dose: 25.0 mg/kg/injection, schedule: Q01DX005 (ip), vehicle: saline 100 % of control | dose: 50.0 mg/kg/injection, schedule: Q01DX005 (ip), vehicle: saline 101 % of control and 109 % of control | dose: 100.0 mg/kg/injection, schedule: Q01DX005 (ip), vehicle: saline 105 % of control and 112 % of control

CC(=O)Oc1cc(OCCCc2ccc(F)cc2)cc2ccc3ccccc3c12
inactive: dose: 100.0 mg/kg/injection, schedule: Q04DX002 (ip), vehicle: saline with Tween-80 92 % of control | dose: 400.0 mg/kg/injection, schedule: Q04DX002 (ip), vehicle: saline with Tween-80 92 % of control

CC(O)C(N)C(=O)NC(Cc1ccccc1)C(N)=O (stereo not drawn) (H-Thr-Phe-NH2; configuration not given here)
inactive: [6] 101 % of control | [7] 100 % of control | [8] 103 % of control

COc1ccc(-n2c(-c3ccc(-n4c(C)nc5ccc(I)cc5c4=O)cc3)n[nH]c2=S)cc1
inactive: dose: 100.0 mg/kg/injection, schedule: Q04DX002 (ip), vehicle: Klucel (hydroxypropylcellulose) (HPC) 103 % of control | dose: 200.0 mg/kg/injection, schedule: Q04DX002 (ip), vehicle: Klucel (hydroxypropylcellulose) (HPC) 98 % of control | dose: 400.0 mg/kg/injection, schedule: Q04DX002 (ip), vehicle: Klucel (hydroxypropylcellulose) (HPC) 98 % of control

CCn1cc(C(=O)O)c(=O)c2cnc(N3CCCC3)nc21
inactive: [9] 90 % of control | [10] 99 % of control | dose: 200.0 mg/kg/injection, schedule: Q01DX009 (ip), vehicle: saline with Tween-80 92 % of control

CC1(C)NN=C2C(=CC=C3NNC(C)(C)N32)n2cccc21
inactive: [6] 104 % of control | [7] 106 % of control

NC(=O)CC1(O)CCCCC1
inactive: [11] 100 % of control | dose: 50.0 mg/kg/injection, schedule: Q01DX009 (ip), vehicle: saline 100 % of control | dose: 100.0 mg/kg/injection, schedule: Q01DX009 (ip), vehicle: saline 100 % of control

C[N+](c1ccc(Cl)cc1)=S(C)(C)=O
inactive: [12] 99 % of control | [13] 94 % of control | [11] 98 % of control

Cc1cc(C)c(C#N)c(SCC(=O)c2sc3c(C#N)c(C)cc(C)[n+]3c2[O-])n1
inactive: [6] 90 % of control | [7] 90 % of control | [8] 95 % of control

COC(=O)c1n[nH]n(Cc2cccs2)c1=O (tested in a mixture with another compound)
inactive: dose: 50.0 mg/kg/injection, schedule: Q01DX005 (ip), vehicle: Klucel (hydroxypropylcellulose) (HPC) 108 % of control | dose: 100.0 mg/kg/injection, schedule: Q01DX005 (ip), vehicle: Klucel (hydroxypropylcellulose) (HPC) 103 % of control | dose: 200.0 mg/kg/injection, schedule: Q01DX005 (ip), vehicle: Klucel (hydroxypropylcellulose) (HPC) 97 % of control

CC(CCCN)Nc1cc2c(c3cccnc13)OCCO2 (stereo not drawn)
inactive: [12] 90 % of control | [13] 86 % of control | [11] 100 % of control

COc1ccc(C2CC(CO)ON2c2ccccc2)cc1 (stereo not drawn)
inactive: [3] 98 % of control | [4] 98 % of control | [5] 99 % of control

O=C(O)CNC(=O)C1CCCN1C(=O)OCc1ccccc1 (stereo not drawn) (Cbz-[ξP]-Gly-OH)
inactive: [6] 100 % of control | [7] 91 % of control | [8] 91 % of control

O=C(CCl)Nc1nccs1
inactive: [1] 111 % of control | [2] 112 % of control | [9] 103 % of control | [10] 116 % of control
